This passage reports IC50, inhibition and Ki results from ChEMBL document CHEMBL5518158, “Recent advances in triazoles as tyrosinase inhibitors” (Eur J Med Chem, 2023).

One assay addresses T1, Tyrosinase (Homo sapiens, UniProt P14679).
T1 sequence (P14679 whole entry): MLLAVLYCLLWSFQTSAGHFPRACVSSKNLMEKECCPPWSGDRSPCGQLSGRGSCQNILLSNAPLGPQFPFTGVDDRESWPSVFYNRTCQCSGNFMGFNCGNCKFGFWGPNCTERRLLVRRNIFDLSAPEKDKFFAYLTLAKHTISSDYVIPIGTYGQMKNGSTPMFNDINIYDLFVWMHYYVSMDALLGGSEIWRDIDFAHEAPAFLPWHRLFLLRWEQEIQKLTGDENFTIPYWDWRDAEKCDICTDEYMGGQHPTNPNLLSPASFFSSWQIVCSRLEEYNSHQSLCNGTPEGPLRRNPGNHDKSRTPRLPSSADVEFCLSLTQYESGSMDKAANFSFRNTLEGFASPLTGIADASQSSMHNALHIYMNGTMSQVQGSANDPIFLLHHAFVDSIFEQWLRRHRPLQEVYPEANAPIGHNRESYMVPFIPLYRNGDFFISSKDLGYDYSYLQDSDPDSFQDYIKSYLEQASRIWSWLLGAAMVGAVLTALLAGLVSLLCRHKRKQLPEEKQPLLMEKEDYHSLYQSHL
Briefly: Competitive inhibition of His-tagged human tyrosinase expressed in HEK293 cells. It counts as cell-based.

Assay [1] concerns the target T2, Mushroom tyrosinase (Agaricus bisporus, UniProt O42713+Q00024+C7FF04+C7FF05). Nature of the assay: Inhibition of mushroom tyrosinase. It counts as protein assay.
The target of assay [2] is T3, Mushroom tyrosinase (Agaricus bisporus) (UniProt O42713+Q00024+C7FF04+C7FF05). Briefly: Inhibition of mushroom tyrosinase at 100 uM relative to control. It counts as protein assay.
Assay [3] addresses T2, Mushroom tyrosinase. Nature of the assay: Inhibition of mushroom tyrosinase by spectrophotometric method. It counts as protein assay.
The target in assay [4] is T2, Mushroom tyrosinase. Nature of the assay: Binding affinity to mushroom tyrosinase assessed as inhibition constant. It counts as protein assay.
Assay [5] concerns the target T2, Mushroom tyrosinase. Briefly: Inhibition of mushroom tyrosinase using L-DOPA as substrate measured for 15 mins by spectrophotometer analysis. It counts as protein assay.
Assay [6] deals with T3, Mushroom tyrosinase (Agaricus bisporus). Briefly: (§1) Inhibition of mushroom tyrosinase using L-DOPA as substrate incubated for 15 mins by spectrophotometric analysis. It counts as protein assay.
Assay [7] concerns the target T2, Mushroom tyrosinase. Nature of the assay: Inhibition of mushroom tyrosinase using L-DOPA as substrate incubated for 20 mins spectrophotometric analysis. It counts as protein assay.
Assay [8] concerns the target T2, Mushroom tyrosinase. Briefly: Inhibition of mushroom tyrosinase using L-dopa as substrate by spectrophotometric method. It counts as protein assay.
The target of assay [9] is T2, Mushroom tyrosinase. Nature of the assay: Inhibition of mushroom tyrosinase incubated for 10 mins by spectrophotometric analysis. It counts as protein assay.
Assay [10] addresses T2, Mushroom tyrosinase. Nature of the assay: Inhibition of mushroom tyrosinase using L-tyr as substrate. It counts as protein assay.
Assay [11] deals with T2, Mushroom tyrosinase. Described as §1. It counts as protein assay.
For assay [12], the target named is T2, Mushroom tyrosinase. Briefly: Inhibition of mushroom tyrosinase using L-DOPA as substrate preincubated for 10 mins. It counts as protein assay.
The target of assay [13] is T2, Mushroom tyrosinase. Briefly: Binding affinity to mushroom tyrosinase assessed as binding constant by fluorescence spectrophotometry. It counts as protein assay.
The target in assay [14] is T2, Mushroom tyrosinase. Nature of the assay: Inhibition of mushroom tyrosinase using L-DOPA as substrate pre-treated for 20 mins followed by substrate addition measured for 15 mins by absorbance based analysis. It counts as protein assay.
In assay [15] the target is T2, Mushroom tyrosinase. Nature of the assay: Inhibition of mushroom tyrosinase using L-tyrosine as substrate incubated for 20 mins by spectrophotometric analysis. It counts as protein assay.

As usually defined, the IC50 is the point on the concentration scale where inhibition reaches its midpoint. On Tyrosinase, `NC(=S)N/N=C/c1ccc(OCc2cn(Cc3ccc(Cl)c(Cl)c3)nn2)cc1` displayed an IC50 of 220 nM.
The inhibition is the percentage by which the read-out fell short of the control. In the case of `COc1ccc(/C=N/Nc2nnc(S)n2N)cc1O`, the IC50 against Mushroom tyrosinase [1] was 3400 nM. For the same compound, the inhibition in assay [2] was determined as 98%.
Compound `Cc1cccc(Cn2cc(COc3ccc(/C=N/NC(N)=S)cc3)nn2)c1` came in with an IC50 on Tyrosinase of 220 nM.
A word on the Ki: it is the equilibrium dissociation constant of an inhibitor or competing ligand from its target. Take `CCCCCn1nc(-c2ccccc2)n(CC(=O)NNC(=O)Nc2ccccc2C(F)(F)F)c1=O`: the IC50 against Mushroom tyrosinase [3] was 1 nM. The inhibition constant Ki at Mushroom tyrosinase [4] is 10 nM.
As to `COc1ccc(NC(=O)Cn2cc(COc3ccc(/C=N/NC(N)=S)cc3)nn2)cc1`, the IC50 at Mushroom tyrosinase [5] amounted to 250 nM.
Consider `O=c1oc2ccccc2c2c1cnn2Cc1cn(-c2ccccc2)nn1`, for which the inhibition in assay [6] is 85%.
Regarding `O=c1cc(Cn2cc(COc3cccc4ccccc34)nn2)occ1O`, the IC50 on Mushroom tyrosinase [7] came to 60 nM.
For `Nn1c(S)nnc1N/N=C\c1cccc(F)c1`, the IC50 on Mushroom tyrosinase [8] came to 12500 nM.
Regarding `O=c1oc2ccccc2c2nn(Cc3cn(-c4c(Cl)cc(Cl)cc4Cl)nn3)cc12`, in assay [6], the inhibition was 58%.
In the case of `O=c1cc(Cn2cc(COc3ccc4ccccc4c3)nn2)occ1O`, at Mushroom tyrosinase [7], the IC50 was 300 nM.
The compound `Nn1c(S)nnc1N/N=C\c1ccccc1O` had an IC50 at Mushroom tyrosinase [8] of 1520 nM.
`O=c1cc(Cn2cc(COc3ccc([N+](=O)[O-])cc3)nn2)occ1O` returned an IC50 on Mushroom tyrosinase [9] of 520 nM.
On Mushroom tyrosinase [10], `COc1ccc(C=O)cc1O` [ISOVANILLIN] yielded a 50% inhibitory concentration (IC50) of over 500000 nM.
Take `CCCCCn1nc(-c2ccccc2)n(CC(=O)NNC(=O)Nc2cccc(C(F)(F)F)c2)c1=O`: the IC50 on Mushroom tyrosinase [3] amounted to 1 nM.
With `Cc1cc(C=C2C(=O)NC(=S)NC2=O)c(OCc2cn(Cc3ccc(F)cc3)nn2)cc1Br`, the Ki on Mushroom tyrosinase [4] was 60270 nM. For the same compound, the IC50 against Mushroom tyrosinase [11] came to 24600 nM.
On Mushroom tyrosinase [12], `O=C(CSc1nnc(-c2ccccc2F)n1-c1ccc(F)cc1)Nc1ccc(F)cc1` came in with a 50% inhibitory concentration (IC50) of 98 nM. Moreover, the Ki at Mushroom tyrosinase [13] stood at 18 nM.
On to `Oc1ccc2c(c1)OCO2`, for which the IC50 at Mushroom tyrosinase [14] came to 6700 nM.
With `CCCCCn1nc(-c2ccccc2)n(CC(=O)NNC(=S)Nc2ccccc2C(F)(F)F)c1=O`, the Ki on Mushroom tyrosinase [4] was 100 nM.
Consider `O=c1oc2ccccc2c2nn(Cc3cn(-c4ccccc4)nn3)cc12`, for which the inhibition in [6] came to 69%.
`Nn1c(S)nnc1N/N=C\c1cccc(O)c1`: the half-inhibitory concentration (IC50) against Mushroom tyrosinase [8] amounted to 7000 nM.
For the compound `CCCCCn1nc(-c2ccccc2)n(CC(=O)NNC(=O)Nc2cc(C(F)(F)F)cc(C(F)(F)F)c2)c1=O`, at Mushroom tyrosinase [3], the IC50 is 1 nM.
`C/C=C/c1ccc(O)c(OC)c1`: at Mushroom tyrosinase [15], the IC50 is 33330 nM.
Turning to `Cc1ccc(Cn2cc(COc3ccc(/C=N/NC(N)=S)cc3)nn2)cc1`, on Tyrosinase, the IC50 turned out to be 220 nM.
Regarding `Nn1c(S)nnc1N/N=C/c1cccc(C(F)(F)F)c1`, at Mushroom tyrosinase [1], the IC50 was found to be 9000 nM. Also, in [2], the inhibition stood at 95%.
At Tyrosinase, `NC(=S)N/N=C/c1ccc(OCc2cn(Cc3ccc(F)cc3)nn2)cc1` displayed an IC50 of 220 nM.
In turn, `Cc1c(NC(=O)Cn2cc(COc3ccc(/C=N/NC(N)=S)cc3)nn2)cccc1[N+](=O)[O-]` came in with a half-inhibitory concentration (IC50) against Mushroom tyrosinase [5] of 120 nM.
Compound `Nn1c(S)nnc1N/N=C/c1cccc(Cl)c1` showed an IC50 on Mushroom tyrosinase [1] of 15000 nM. This compound had an inhibition in assay [2] of 81%.
